Measured values published in patent US11466025B2, “Thienopyridine derivatives containing unsaturated aliphatic olefinic bond, preparation method and use thereof” (Tianjin Institute of Pharmaceutical Research Co., Ltd., priority 2017, dated 2022).
Like-named read-outs stand apart in the source and are kept apart here.

Columns and labels:
[1] = tested on: platelet aggregation induced by ADP; assay: Test of inhibitory effect of compounds on platelet aggregation in rats (ex vivo, ADP-induced, after intragastric administration); parameters: species or system SD rats; conditions: for ED50: Rattus norvegicus; for Inhibition rate (%): platelet aggregation, control = 100%; for Aggregation rate (%): 2 h after administration, ADP 20 uM
Experimental: Test of Inhibitory Effect of Compounds on Platelet Aggregation in Rats Healthy male SD rats were selected and randomly divided into solvent control group, positive drug control group and test compound group. Intragastric administration was carried out, with the administration volume being 10 ml/kg˜bw. […] The platelet count was adjusted to 5×10^8 cells/ml with PPP.

[2] = tested on: arteriovenous bypass thrombosis in rats; assay: Test of effect of compounds on arteriovenous bypass thrombosis in rats; type: in vivo, SD rats; conditions: rats; for ED50: Rattus norvegicus, po, dry weight of thrombus from arteriovenous bypass, intragastric, read-out: ED50; for Inhibition rate (%): dry weight of thrombus
Experimental: Test of Effect of Compounds on Arteriovenous Bypass Thrombosis in Rats
Male SD rats were randomly divided into solvent control group, positive drug control group and test compound group. The solvent control group was administered a corresponding volume of the solvent. […] Rats were anesthetized with 4% chloral hydrate (0.32 g/kg), and fixed on the operating table at the supine position. The right common carotid artery and the left external jugular vein were separated, and was each inserted with a Teflon tube filled with normal saline solution containing heparin (50 U/mL), which were connected through another Teflon tube. A 6 cm long cotton thread was placed at the joints of the two tubes. After 2.5 h of administration, the arteriovenous loop was opened in each group and circulated for 15 min. The blood flow was interrupted, and the cotton thread wrapped with the thrombus was quickly removed and weighed. The weight of the cotton thread was subtracted to obtain the wet weight of the thrombus, and then it was baked in the oven to constant weight and weighed. The weight of the cotton thread was subtracted to obtain the dry weight of the thrombus.

[3] = for Concentration of incubated compound in human plasma / Incubated compound in human plasma, %: 1 μM
Experimental: Plasma samples (double sample) containing 1 μM of the compounds of the present invention, clopidogrel hydrogen sulfate (LBGL), 2-oxo product (2-Oxo) were prepared from human blank plasma, and incubated at 37° C. 50 μL of the above incubated plasma samples were taken at different time points, and 100 μL of precipitant (acetonitrile:methanol=7:3) and 50 μL of internal standard were added. The mixture was vortexed for 1 min and centrifuged for 10 min. 100 μL of the supernatant was taken into an inner inserted tube, centrifuged for 5 min, and injected for LC-MS/MS analysis.
Preparation of blank control sample (PPT-0): 100 μL of frozen human blank plasma was taken, to which 195 μL of acetonitrile and 100 μL of internal standard were added, followed by 5 μL of the compound of the present invention, clopidogrel or 2-oxo product (20 μM). The mixture was vortexed for 1 min and centrifuged for 10 min. 100 μL of the supernatant was taken into an inner inserted tube, centrifuged for 5 min, and injected for LC-MS/MS analysis.

[4] = Stability of the compounds under high temperature, high humidity and light (influence factors, HPLC); type: physicochemical
Experimental: Study on the Stability of the Compounds:
The stability of the compound is investigated under the conditions of high temperature, high humidity and light. The testing conditions for high performance liquid chromatography (HPLC) are as follows:
Instrument: high performance liquid chromatography;
Column: Inertsil C8-3, 150 mm×4.6 mm, 5 μm;
Mobile phase A: acetonitrile; mobile phase B: 5 mM ammonium dihydrogen phosphate;
Detection wavelength: 220 nm;
Column temperature: 35° C.;
Sample chamber temperature: 25° C.;
Column: Agilent Poroshell 120 EC-C18, 100 mm×4.6 mm, 2.7 μm;
Column temperature: 30° C.;
Other conditions are the same as that in Method 1.
Samples relating to Compound I-2 were tested using Method 2 and other samples were tested using Method 1. The test results of the influence factors are shown in Table 14, and the test results of the light-avoidance stability test are shown in Table 15.

[5] = tested on: bleeding time of amputated tail in rats; assay: Test of hemorrhagic side effects: bleeding time of amputated tail in rats; type: in vivo, SD rats; conditions: intragastric, tail cut 1 h after administration, linear equation fitted
Experimental: Test of Hemorrhagic Side Effects:
1 h after administration, the rats were anesthetized by intraperitoneal injection of 20% urethane (1 g/kg), and the tail was cut off 5 mm from the tip of the tail, which was then placed in a test tube containing 5 ml normal saline at 37° C. The time from tail cut to cease of bleeding was recorded as the bleeding time. The increasing rate of bleeding time in each dose group was calculated, with the bleeding time of the rats in the control group being 100%.

[6] = inhibition of ADP-induced platelet aggregation, rats, oral administration, read-out: ED50
[7] = 5 days, High temperature 60° C.
[8] = 10 days, High temperature 60° C.
[9] = 30 days, High temperature 60° C.

COC(=O)[C@H](c1ccccc1Cl)N1CCc2sccc2C1 [Clopidogrel, reference compound]
ED50 [1, 6]: 4.13 mg/kg | Inhibition rate (%) ([1]; rats, intragastric 2.5 mg/kg): 26.5% | Inhibition rate (%) ([1]; rats, intragastric 5 mg/kg): 59.7% | Inhibition rate (%) ([1]; rats, intragastric 10 mg/kg): 90.5% | Aggregation rate (%) ([1]; rats, intragastric 2.5 mg/kg): 44.1 ± 13.5% | Aggregation rate (%) ([1]; rats, intragastric 5 mg/kg): 24.2 ± 10.6 % | Aggregation rate (%) ([1]; rats, intragastric 10 mg/kg): 5.7 ± 7.5 % | ED50 [2]: 11.8 mg/kg | Inhibition rate (%) ([2]; intragastric 3 mg/kg): 24.2% | Inhibition rate (%) ([2]; intragastric 10 mg/kg): 41.5% | Inhibition rate (%) ([2]; intragastric 30 mg/kg): 72.6% | Concentration of incubated compound in human plasma ([3]; 0 min): 965 nM | Incubated compound in human plasma, % ([3]; 0 min): 98.1% | Concentration of incubated compound in human plasma ([3]; 5 min): 1045 nM | Incubated compound in human plasma, % ([3]; 5 min): 106% | Concentration of incubated compound in human plasma ([3]; 10 min): 1000 nM | Incubated compound in human plasma, % ([3]; 10 min): 102% | Concentration of incubated compound in human plasma ([3]; 20 min): 987 nM | Incubated compound in human plasma, % ([3]; 20 min): 100% | Concentration of incubated compound in human plasma ([3]; 30 min): 1025 nM | Incubated compound in human plasma, % ([3]; 30 min): 104% | Concentration of incubated compound in human plasma ([3]; 45 min): 995 nM | Incubated compound in human plasma, % ([3]; 45 min): 101% | Concentration of incubated compound in human plasma ([3]; 60 min): 981 nM | Incubated compound in human plasma, % ([3]; 60 min): 100% | Concentration of incubated compound in human plasma ([3]; 90 min): 924 nM | Incubated compound in human plasma, % ([3]; 90 min): 94.0% | Concentration of incubated compound in human plasma ([3]; 120 min): 944 nM | Incubated compound in human plasma, % ([3]; 120 min): 96.0% | Stability in human plasma ([3]; plasma, 2 h): substantially stable

COC(=O)[C@H](c1ccccc1Cl)N1CCc2sc(OC(C)=O)cc2C1.Cl [Compound D-9, Methyl (S,E)-2-(2-chlorophenyl)-2-(2-acetoxy-6,7-dihydrothieno[3,2-c]pyridin-5(4H)-yl)-acetate Hydrochloride, reference compound]
Chromatographic purity % ([4]; 0 day, 0point): 99.802% | Individual maximum impurity % ([4]; 0 day, 0point): 0.062% | Chromatographic purity % ([4]; 5 days, High humidity RH92.5%): 29.362% | Individual maximum impurity % ([4]; 5 days, High humidity RH92.5%): 20.760% | Chromatographic purity % [4, 7]: 92.725% | Individual maximum impurity % [4, 7]: 2.897% | Chromatographic purity % ([4]; 5 days, Light 4500 ± 500 LX): 97.637% | Individual maximum impurity % ([4]; 5 days, Light 4500 ± 500 LX): 0.946% | Chromatographic purity % ([4]; 10 days, High humidity RH92.5%): 3.827% | Individual maximum impurity % ([4]; 10 days, High humidity RH92.5%): 26.942% | Chromatographic purity % [4, 8]: 84.395% | Individual maximum impurity % [4, 8]: 5.254% | Chromatographic purity % ([4]; 10 days, Light 4500 ± 500 LX): 96.472% | Individual maximum impurity % ([4]; 10 days, Light 4500 ± 500 LX): 1.621% | Individual maximum impurity % ([4]; 30 days, High humidity RH92.5%): 52.717% | Chromatographic purity % [4, 9]: 39.866% | Individual maximum impurity % [4, 9]: 9.740% | Chromatographic purity % ([4]; 30 days, Light 4500 ± 500 LX): 91.198% | Individual maximum impurity % ([4]; 30 days, Light 4500 ± 500 LX): 3.728%

CC/C=C/C(=O)Oc1cc2c(s1)CCN([C@H](C(=O)OC)c1ccccc1Cl)C2 [Compound I-4, Methyl (S,E)-2-(2-chlorophenyl)-2-(2-(2-pentenoyloxy)-6,7-dihydrothieno[3,2-c]pyridin-5(4H)-yl)-acetate]
ED50 [1, 6]: 1.27 mg/kg | Inhibition rate (%) ([1]; rats, intragastric 0.5 mg/kg): 26.2% | Inhibition rate (%) ([1]; rats, intragastric 1 mg/kg): 38.2% | Inhibition rate (%) ([1]; rats, intragastric 2 mg/kg): 62.9% | Inhibition rate (%) ([1]; rats, intragastric 4 mg/kg): 78.4% | Inhibition rate (%) ([1]; rats, intragastric 8 mg/kg): 100.0% | Aggregation rate (%) ([1]; rats, intragastric 0.5 mg/kg): 44.3 ± 25.8% | Aggregation rate (%) ([1]; rats, intragastric 1 mg/kg): 37.1 ± 20.8% | Aggregation rate (%) ([1]; rats, intragastric 2 mg/kg): 22.3 ± 17.2 % | Aggregation rate (%) ([1]; rats, intragastric 4 mg/kg): 13.0 ± 11.3 % | Aggregation rate (%) ([1]; rats, intragastric 8 mg/kg): 0.0 ± 0.0 %

CCC/C=C/C(=O)Oc1cc2c(s1)CCN([C@H](C(=O)OC)c1ccccc1Cl)C2 [Compound I-5, Methyl (S,E)-2-(2-chlorophenyl)-2-(2-(2-hexenoyloxy)-6,7-dihydrothieno[3,2-c]pyridin-5(4H)-yl)-acetate]
ED50 ([1]; Platelet, po): 1.03 mg/kg | Inhibition rate (%) ([1]; rats, intragastric 0.5 mg/kg): 19.5% | Inhibition rate (%) ([1]; rats, intragastric 1 mg/kg): 52.8% | Inhibition rate (%) ([1]; rats, intragastric 2 mg/kg): 74.3% | Aggregation rate (%) ([1]; rats, intragastric 0.5 mg/kg): 48.4 ± 17.3% | Aggregation rate (%) ([1]; rats, intragastric 1 mg/kg): 28.3 ± 11.7 % | Aggregation rate (%) ([1]; rats, intragastric 2 mg/kg): 15.4 ± 14.7 %

CC(=O)Oc1cc2c(s1)CCN(C(C(=O)C1CC1)c1ccccc1F)C2 (centres unmarked) [Prasugrel, reference compound]
ED50 [1, 6]: 0.612 mg/kg | Inhibition rate (%) ([1]; rats, intragastric 0.25 mg/kg): 13.3% | Inhibition rate (%) ([1]; rats, intragastric 0.5 mg/kg): 37.8% | Inhibition rate (%) ([1]; rats, intragastric 1 mg/kg): 75.0% | Aggregation rate (%) ([1]; rats, intragastric 0.25 mg/kg): 52.1 ± 6.6% | Aggregation rate (%) ([1]; rats, intragastric 0.5 mg/kg): 37.4 ± 12.3 % | Aggregation rate (%) ([1]; rats, intragastric 1 mg/kg): 15.0 ± 10.2 % | ED50 [2]: 1.57 mg/kg | Inhibition rate (%) ([2]; intragastric 0.1 mg/kg): 6.0% | Inhibition rate (%) ([2]; intragastric 0.3 mg/kg): 9.0% | Inhibition rate (%) ([2]; intragastric 1 mg/kg): 35.7% | Inhibition rate (%) ([2]; intragastric 3 mg/kg): 70.2% | ED200 (dose that doubled the bleeding time) [5]: 0.513 mg/kg

C=C/C=C/C(=O)Oc1cc2c(s1)CCN([C@H](C(=O)OC)c1ccccc1Cl)C2 [Compound I-3, Methyl (S,E)-2-(2-chlorophenyl)-2-(2-(2,4-pentadienoyloxy)-6,7-dihydrothieno[3,2-c]pyridin-5(4H)-yl)-acetate]
ED50 [1, 6]: 1.04 mg/kg | Inhibition rate (%) ([1]; rats, intragastric 1 mg/kg): 44.0% | Inhibition rate (%) ([1]; rats, intragastric 2 mg/kg): 97.6% | Inhibition rate (%) ([1]; rats, intragastric 4 mg/kg): 100% | Aggregation rate (%) ([1]; rats, intragastric 1 mg/kg): 33.6 ± 31.3% | Aggregation rate (%) ([1]; rats, intragastric 2 mg/kg): 1.44 ± 2.5 % | Aggregation rate (%) ([1]; rats, intragastric 4 mg/kg): 0.0 ± 0.0 %

COC(=O)[C@H](c1ccccc1Cl)N1CCc2sc(OC(=O)/C=C/c3ccc(OC)cc3)cc2C1 [Compound D-8, Methyl (S,E)-2-(2-chlorophenyl)-2-(2-(3-(4-methoxyphenyl)acryloyloxy)-6,7-dihydrothieno[3,2-c]pyridin-5(4H)-yl)-acetate, reference compound]
Chromatographic purity % ([4]; 0 day, 0point): 99.118% | Individual maximum impurity % ([4]; 0 day, 0point): 0.135% | Chromatographic purity % ([4]; 5 days, High humidity RH92.5%): 99.253% | Individual maximum impurity % ([4]; 5 days, High humidity RH92.5%): 0.127% | Chromatographic purity % [4, 7]: 96.953% | Individual maximum impurity % [4, 7]: 0.510% | Chromatographic purity % ([4]; 5 days, Light 4500 ± 500 LX): 91.635% | Individual maximum impurity % ([4]; 5 days, Light 4500 ± 500 LX): 1.094% | Chromatographic purity % ([4]; 10 days, High humidity RH92.5%): 99.202% | Individual maximum impurity % ([4]; 10 days, High humidity RH92.5%): 0.104% | Chromatographic purity % [4, 8]: 93.371% | Individual maximum impurity % [4, 8]: 1.224% | Chromatographic purity % ([4]; 10 days, Light 4500 ± 500 LX): 80.960% | Individual maximum impurity % ([4]; 10 days, Light 4500 ± 500 LX): 2.821% | Chromatographic purity % ([4]; 30 days, High humidity RH92.5%): 98.933% | Individual maximum impurity % ([4]; 30 days, High humidity RH92.5%): 0.172% | Chromatographic purity % [4, 9]: 80.070% | Individual maximum impurity % [4, 9]: 5.418% | Chromatographic purity % ([4]; 30 days, Light 4500 ± 500 LX): 59.908% | Individual maximum impurity % ([4]; 30 days, Light 4500 ± 500 LX): 8.206%
